Assay results taken from patent US12594257B2, “Means and methods for improving anti-tumoral efficacy of transmembrane channel protein blockers” (ARDAN PHARMA S.A.S., priority 2021, dated 2026).
Entries after “also recorded” stand apart in the source; their conditions may differ. Where two headings read alike, the source gives them in different places.

Assays:
[1] = mouse, in vivo; cited from earlier work
[2] = tested on: L-type voltage-gated Ca2+ channels; conditions: cited from earlier work
[3] = tested on: murine cancer models; conditions: cited from earlier work; for Tumor growth, preventive protocol: before tumor establishment
[4] = tested on: E.G7-OVA thymic lymphoma; experiment: Therapeutic treatment of established E.G7-OVA tumors, intratumoral injection; format: in vivo, mouse; conditions: WT mice, established EG7 tumors, i.t. 70 nmoles every two days, five injections; vs eNPs or vehicle
Method: Tumor Models and Treatments: WT and Tmem176b^−/− C57BL/6 mice were injected s.c with 0.5×10^6 E.G7-OVA thymic lymphoma cells. At the indicated experiment, injection was performed alternating one Tmem176b and one Tmem176b^−/− mouse until completing both groups. In treated animals, alternation was done between (+)-BayK8644- and vehicle-treated animals or NP-BayK8644 and eNP-treated animals. Tumor growth was caliper measured manually every 2-3 days, and the two major diameters were taken. 70 nmoles of free (+)-BayK8644 or (+)-BayK8644 encapsulated in chitosan nanoparticles, or the same amount of empty NPs injections were repeated at the +2, +4, +6, +8 days after the first injection. Mice were sacrificed when one of the major tumor diameters reached 2 cm.
WT and Tmem176b^−/− animals were inoculated with EG7 tumors. Once tumors reached 25 mm^2, animals were i.t. injected with 70×10^−9 moles of (+)-BayK8644, NP-PEG-BayK8644 or eNP-PEG. Treatments were repeated every two days reaching a total of five injections. Mice were euthanized when the longer diameter reached tumors reached […].

[5] = tested on: CD11c+ splenic DCs; experiment: Antigen cross-presentation assay in mouse splenic dendritic cells (B3Z T cell activation, β-galactosidase readout); format: cell-based
Method: Antigen cross-presentation assays in mouse splenic dendritic cells: To obtain splenic DCs, spleen of C57BL/6 mice was extracted, cut into small pieces and treated with collagenase-D (Roche, Merck). After 30 minutes of incubation at 37° C., the enzymatic reaction was stopped with a 10 mM EDTA solution. Lysis of red blood cells was performed with an ammonium chloride solution. Finally, cells were washed with PBS/SFB1%. […] Briefly, splenic cells were labeled with anti-CD11c antibodies conjugated to the beads. The cells were allowed to pass through a magnetic column subjected to a magnetic field. Thereby, CD11c^+ cells were retained on the column. […]
CD11c^+ spleen cells were incubated with 3 mg/mL of soluble OVA, or OVA plus 20 μM of free (+)-BayK8644, 20 μM of (+)-BayK8644 encapsulated into chitosan nanoparticles (NP-BayK8644) or empty counterpart (eNP) for 4 hours in supplemented-RPMI medium. […] The activation of B3Z cell line was measured detecting β-galactosidase activity by optical density (absorbance at 595-655 nm) using chlorophenol red-β-D-galactopyranoside (CPRG; Roche) as substrate for the reaction.
(+)-BayK8644 inhibits antigen cross-presentation by splenic DCs in vitro: We first studied whether (+)-BayK8644 inhibits antigen cross-presentation in vitro. […] B3Z T cell activation was measured by assessing β-galactosidase activity in a colorimetric assay. […]

Compound | Toxicities in mice [1] | Effect on L-type Ca++ channels [2] | Tumor growth, preventive protocol [3] | Tumor growth, preventive protocol ([3]; listed as BayK8644) | Caspase-1 activation in the TDLN ([3]; i.p) | Tumor growth, therapeutic protocol ([3]; mice bearing established tumors) | Mouse survival [4] | Tumor growth [4] | B3Z T cell activation by DCs loaded with OVA protein (cross-presentation) ([5]; 3 mg/ml soluble OVA 4 hours, 10 μM or 20 μM) | B3Z T cell activation by DCs loaded with OVA peptide SIINFEKL ([5]; SIINFEKL 45 minutes, 20 μM)
COC(=O)C1=C(C)NC(C)=C([N+](=O)[O-])C1c1ccccc1C(F)(F)F (single isomer, unassigned; (+)) [(+)-BayK8644] | not associated with toxicities | inhibitor | controlled tumor growth; also recorded: controlled its growth | controlled tumor growth | increased Caspase-1 activation | failed to do so | failed | failed to control tumor growth | significantly decreased their capacity to activate B3Z cells | did not inhibit activation of B3Z cells
COC(=O)C1=C(C)NC(C)=C([N+](=O)[O-])C1c1ccccc1C(F)(F)F (single isomer, unassigned; (-)) [(−)-BayK8644] |  | agonists |  |  |  |  |  |  |  | 
